Experimental data as given in US20230024302A1, “2,3,5-TRISUBSTITUTED PYRAZOLO[1,5-A]PYRIMIDINE COMPOUNDS” (Arcus Biosciences, Inc., priority 2019, published 2023).

What was measured:
PI3Kγ (p120γ) = molecular target: T1, PI3Kγ (p120γ) (Homo sapiens, UniProt P48736); assay: Inhibition of PI3K kinase activity (ADP Glo), PI3Kγ; settings: Table 1, p120γ, read-out: biochemical potency (PI3Kγ IC50)
T1 construct: purchased Promega V1761
Description: Compounds were evaluated to determine the potency with which they inhibited the kinase activity of the Class I PI3K subunits p110α/p85α (Promega, Cat #V1721), p110β/p85α (Promega, Cat #V1751), p120γ (Promega, Cat #V1761) and p110δ/p85α (Promega, Cat #V1771). Activity was determined as a function of ADP (adenosine diphosphate) generated from ATP consumed during the phosphorylation of Phosphatidylinositol 4,5-bisphosphate (PIP2) (Promega, Cat #V1701) to yield Phosphatidylinositol (3,4,5)-trisphosphate (PIP3). ADP levels in the assay mixture at the end of the reaction were quantitated using ADP Glo (Promega, Cat #V9103) according to the manufacturer's recommended protocol.
Enzyme was prepared for each of the PI3K subunits in 100 mM HEPES, pH 7.4, 100 mM NaCl, 6 mM MgCl2 and 0.05% BSA. p110α/p85α was prepared at 2 nM (2×), p110β/p85α was prepared at 7 nM (2×), p120γ was prepared at 8 nM (2×) and p110δ/p85α was prepared at 2 nM (2×). Five microliters of 2× enzyme dilution of each PI3K subunit were added to a 384-well white Opti-plates pre-dispensed with compound and allowed to incubate for 1 h at rt. A substrate mix containing 0.1 mg/ml (2×) of PIP2 and 50 μM (2×) ATP (Promega, Cat #V915) was prepared in 25 mM HEPES and 0.5 mM EGTA. Reactions were initiated by addition of 5 μl of 2× substrate mix to each well of the plates containing various PI3K isoforms and allowed to proceed for 60 min at rt. Ten microliters of ADP Glo reagent 1 were added to the wells of each plate and allowed to incubate at rt for 45 min according to the manufacturer's directions. Following incubation, 20 μl of ADP Glo reagent 2 was added to each plate and allowed to incubate for an additional 45 min. Luminescent signal, generated by ADP Glo, was quantified by reading on a Perkin Elmer Envision multimode reader. Compound potencies (IC50's) were determined using a standard 4-parameter fit non-linear regression fit.

PI3Kγ = molecular target: T2, PI3Kγ (Homo sapiens, UniProt P48736); assay: PI3Kγ cellular assay in THP-1 cells (AKT pS473 AlphaLISA); assay type: cell-based; settings: Table 1, rhMCP-1 stimulated AKT pS473, read-out: cellular potency (PI3Kγ IC50)
T2 construct: host or cells: THP-1
Description: Twenty microliters of serum starved THP-1 cells were added to the compound plate in serum free DMEM at a density of 9×10^6 cells per ml. Final assay conditions comprised 1.8×10^5 THP-1 cells per well with test compounds in 2% DMSO across a concentration range from 4 nM to 30 μM. […] Briefly, 10 μL of 4× lysis buffer was added to cells after stimulation. Following 60 min incubation at rt, 10 μL of cell lysate was transferred to a fresh 384-well Opti-plate to which 5 μL of AlphaLisa acceptor beads and 5 μL of AlphaLisa donor beads had been added. […] PI3Kγ activity was evaluated as a correlate of endogenous AKT phosphorylation levels. Percentage maximum activity in each test well was calculated based on DMSO (100% activity) and positive control treated cell wells (0% activity). The potencies (IC50's) of test compounds were determined using a standard 4-parameter fit non-linear regression fit.

T2 sequence (P48736 whole entry): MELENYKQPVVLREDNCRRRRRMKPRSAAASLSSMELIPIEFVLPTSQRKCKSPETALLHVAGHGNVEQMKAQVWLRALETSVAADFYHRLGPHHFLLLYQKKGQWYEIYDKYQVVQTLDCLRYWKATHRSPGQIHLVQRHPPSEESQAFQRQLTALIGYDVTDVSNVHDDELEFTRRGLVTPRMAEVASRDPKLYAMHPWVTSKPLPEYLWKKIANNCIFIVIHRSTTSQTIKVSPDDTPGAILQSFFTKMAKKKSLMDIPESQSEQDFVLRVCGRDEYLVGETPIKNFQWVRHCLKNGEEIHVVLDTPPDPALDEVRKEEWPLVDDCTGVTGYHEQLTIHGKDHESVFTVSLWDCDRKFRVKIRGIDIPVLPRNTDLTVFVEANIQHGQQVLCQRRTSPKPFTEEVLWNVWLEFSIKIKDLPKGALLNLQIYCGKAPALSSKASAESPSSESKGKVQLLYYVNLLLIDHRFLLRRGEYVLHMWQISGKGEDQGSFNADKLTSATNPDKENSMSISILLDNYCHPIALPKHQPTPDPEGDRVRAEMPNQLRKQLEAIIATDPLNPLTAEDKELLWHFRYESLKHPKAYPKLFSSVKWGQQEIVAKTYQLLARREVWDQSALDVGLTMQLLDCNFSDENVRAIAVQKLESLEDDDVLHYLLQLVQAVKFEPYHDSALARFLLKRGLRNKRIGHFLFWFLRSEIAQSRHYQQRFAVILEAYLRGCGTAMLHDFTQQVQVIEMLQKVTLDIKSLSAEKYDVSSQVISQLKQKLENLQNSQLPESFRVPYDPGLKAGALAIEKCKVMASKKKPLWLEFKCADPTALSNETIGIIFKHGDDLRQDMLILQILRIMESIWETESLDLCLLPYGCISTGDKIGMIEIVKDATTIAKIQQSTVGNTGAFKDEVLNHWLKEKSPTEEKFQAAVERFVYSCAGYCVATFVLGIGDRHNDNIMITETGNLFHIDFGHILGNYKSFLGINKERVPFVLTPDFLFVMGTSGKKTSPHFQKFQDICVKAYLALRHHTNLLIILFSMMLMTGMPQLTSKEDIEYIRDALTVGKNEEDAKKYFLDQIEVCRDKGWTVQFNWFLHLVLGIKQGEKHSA
T1 sequence (P48736 whole entry): as above

Row | SMILES | IC50 (PI3Kγ (p120γ)) | IC50 (PI3Kγ)
1 | Cc1cc(-c2ccn3nc(N)c(C(=O)N[C@H]4CC[C@@](C)(O)CC4)c3n2)cc2c1C(=O)N([C@@H](C)C1CC1)C2 [Example 2, 2-Amino-5-{2-[(1S)-1-cyclopropylethyl]-7-methyl-1-oxo-2,3-dihydro-1H-isoindol-5-yl}-N-[cis-4-hydroxy-4-methylcyclohexyl]pyrazolo[1,5-a]pyrimidine-3-carboxamide] | < 100 nM | < 100 nM
2 | Cc1cc(-c2ccn3nc(N)c(C(=O)N[C@H]4CC[C@H](O)C4)c3n2)cc2c1C(=O)N([C@@H](C)C1CC1)C2 [Example 3, 2-Amino-5-{2-[(1S)-1-cyclopropylethyl]-7-methyl-1-oxo-2,3-dihydro-1H-isoindol-5-yl}-N-[(1S,3S)-3-hydroxycyclopentyl]pyrazolo[1,5-a]pyrimidine-3-carboxamide] | < 100 nM | < 100 nM
3 | Cc1cc(-c2ccn3nc(N)c(C(=O)N[C@@H]4CC[C@@H](O)C4)c3n2)cc2c1C(=O)N([C@@H](C)C1CC1)C2 [Example 5, 2-Amino-5-{2-[(1S)-1-cyclopropylethyl]-7-methyl-1-oxo-2,3-dihydro-1H-isoindol-5-yl}-N-[(1R,3R)-3-hydroxycyclopentyl]pyrazolo[1,5-a]pyrimidine-3-carboxamide] | < 100 nM | < 100 nM
4 | Cc1cc(-c2ccn3nc(N)c(C(=O)N[C@H]4CC[C@](C)(O)CC4)c3n2)cc2c1C(=O)N([C@@H](C)C1CC1)C2 [Example 7, 2-Amino-5-{2-[(1S)-1-cyclopropylethyl]-7-methyl-1-oxo-2,3-dihydro-1H-isoindol-5-yl}-N-[trans-4-hydroxy-4-methylcyclohexyl]pyrazolo[1,5-a]pyrimidine-3-carboxamide] | < 100 nM | < 100 nM
5 | Cc1cc(-c2ccn3nc(N)c(C(=O)N[C@H]4CCC[C@@H](O)C4)c3n2)cc2c1C(=O)N([C@@H](C)C1CC1)C2 [Example 9, 2-Amino-5-{2-[(1S)-1-cyclopropylethyl]-7-methyl-1-oxo-2,3-dihydro-1H-isoindol-5-yl}-N-[(1S,3R)-3-hydroxycyclohexyl]pyrazolo[1,5-a]pyrimidine-3-carboxamide] | < 100 nM | < 100 nM
6 | Cc1cc(-c2ccn3nc(N)c(C(=O)N[C@@H]4CCC[C@@H](O)C4)c3n2)cc2c1C(=O)N([C@@H](C)C1CC1)C2 [Example 11, 2-Amino-5-{2-[(1S)-1-cyclopropylethyl]-7-methyl-1-oxo-2,3-dihydro-1H-isoindol-5-yl}-N-[(1R,3R)-3-hydroxycyclohexyl]pyrazolo[1,5-a]pyrimidine-3-carboxamide] | < 100 nM | < 100 nM
7 | Cc1cc(-c2ccn3nc(N)c(C(=O)Nc4cnn(CCO)c4)c3n2)cc2c1C(=O)N([C@@H](C)C1CC1)C2 [Example 16, 2-Amino-5-{2-[(1S)-1-cyclopropylethyl]-7-methyl-1-oxo-2,3-dihydro-1H-isoindol-5-yl}-N-[1-(2-hydroxyethyl)-1H-pyrazol-4-yl]pyrazolo[1,5-a]pyrimidine-3-carboxamide] | < 100 nM | < 100 nM
8 | Cc1cc(-c2ccn3nc(N)c(C(=O)Nc4cnn(CC(C)(C)O)c4)c3n2)cc2c1C(=O)N([C@@H](C)C1CC1)C2 [Example 17, 2-Amino-5-{2-[(1S)-1-cyclopropylethyl]-7-methyl-1-oxo-2,3-dihydro-1H-isoindol-5-yl}-N-[1-(2-hydroxy-2-methylpropyl)-1H-pyrazol-4-yl]pyrazolo[1,5-a]pyrimidine-3-carboxamide] | < 100 nM | < 100 nM
9 | Cc1cc(-c2ccn3nc(N)c(C(=O)Nc4cnn(C)c4)c3n2)cc2c1C(=O)N([C@@H](C)C1CC1)C2 [Example 18, 2-Amino-5-{2-[(1S)-1-cyclopropylethyl]-7-methyl-1-oxo-2,3-dihydro-1H-isoindol-5-yl}-N-(1-methyl-1H-pyrazol-4-yl)pyrazolo[1,5-a]pyrimidine-3-carboxamide] | < 100 nM | < 100 nM
10 | Cc1cc(-c2ccn3nc(N)c(C(=O)Nc4cnn(C)c4C)c3n2)cc2c1C(=O)N([C@@H](C)C1CC1)C2 [Example 19, 2-Amino-5-{2-[(1S)-1-cyclopropylethyl]-7-methyl-1-oxo-2,3-dihydro-1H-isoindol-5-yl}-N-(1,5-dimethyl-1H-pyrazol-4-yl)pyrazolo[1,5-a]pyrimidine-3-carboxamide] | < 100 nM | < 100 nM

Further lines, results first:

Row | IC50 (PI3Kγ (p120γ)) | IC50 (PI3Kγ) | SMILES
11 | < 100 nM | < 100 nM | Cc1cc(-c2ccn3nc(N)c(C(=O)NC[C@H]4C[C@H](O)C4)c3n2)cc2c1C(=O)N([C@@H](C)C1CC1)C2 [Example 4]
12 | < 100 nM | < 100 nM | Cc1cc(-c2ccn3nc(N)c(C(=O)N[C@H]4C[C@](C)(O)C4)c3n2)cc2c1C(=O)N([C@@H](C)C1CC1)C2 [Example 6, 2-Amino-5-{2-[(1S)-1-cyclopropylethyl]-7-methyl-1-oxo-2,3-dihydro-1H-isoindol-5-yl}-N-[trans-3-hydroxy-3-methylcyclobutyl]pyrazolo[1,5-a]pyrimidine-3-carboxamide]
13 | < 100 nM | < 100 nM | Cc1cc(-c2ccn3nc(N)c(C(=O)N[C@@H]4CCC[C@H]4O)c3n2)cc2c1C(=O)N([C@@H](C)C1CC1)C2 [Example 8, 2-Amino-5-{2-[(1S)-1-cyclopropylethyl]-7-methyl-1-oxo-2,3-dihydro-1H-isoindol-5-yl}-N-[(1R,2R)-2-hydroxycyclopentyl]pyrazolo[1,5-a]pyrimidine-3-carboxamide]
14 | < 100 nM | < 100 nM | Cc1cc(-c2ccn3nc(N)c(C(=O)N[C@H]4CNC(=O)C4)c3n2)cc2c1C(=O)N([C@@H](C)C1CC1)C2 [Example 10, 2-Amino-5-{2-[(1S)-1-cyclopropylethyl]-7-methyl-1-oxo-2,3-dihydro-1H-isoindol-5-yl}-N-[(3R)-5-oxopyrrolidin-3-yl]pyrazolo[1,5-a]pyrimidine-3-carboxamide]
15 | < 100 nM | < 100 nM | Cc1cc(-c2ccn3nc(N)c(C(=O)N[C@H]4C[C@H](CO)C4)c3n2)cc2c1C(=O)N([C@@H](C)C1CC1)C2 [Example 12, 2-Amino-5-{2-[(1S)-1-cyclopropylethyl]-7-methyl-1-oxo-2,3-dihydro-1H-isoindol-5-yl}-N-[trans-3-(hydroxymethyl)cyclobutyl]pyrazolo[1,5-a]pyrimidine-3-carboxamide]
16 | < 100 nM | < 100 nM | Cc1cc(-c2ccn3nc(N)c(C(=O)N[C@]4(C)C[C@@H](O)C4)c3n2)cc2c1C(=O)N([C@@H](C)C1CC1)C2 [Example 13, 2-Amino-5-{2-[(1S)-1-cyclopropylethyl]-7-methyl-1-oxo-2,3-dihydro-1H-isoindol-5-yl}-N-[trans-3-hydroxy-1-methylcyclobutyl]pyrazolo[1,5-a]pyrimidine-3-carboxamide]
17 | < 100 nM | < 100 nM | Cc1cc(-c2ccn3nc(N)c(C(=O)N[C@H]4C[C@H](C(C)(C)O)C4)c3n2)cc2c1C(=O)N([C@@H](C)C1CC1)C2 [Example 14, 2-Amino-5-{2-[(1S)-1-cyclopropylethyl]-7-methyl-1-oxo-2,3-dihydro-1H-isoindol-5-yl}-N-[trans-3-(2-hydroxypropan-2-yl)cyclobutyl]pyrazolo[1,5-a]pyrimidine-3-carboxamide]
18 | < 100 nM | < 100 nM | Cc1cc(-c2ccn3nc(N)c(C(=O)Nc4cccc(C(=O)O)c4)c3n2)cc2c1C(=O)N([C@@H](C)C1CC1)C2 [Example 15, m-[(5-{2-[(S)-1-Cyclopropylethyl]-7-methyl-5-isoindolinoyl}-2-amino-1,4,7a-triaza-3-indenyl)carbonylamino]benzoic acid]
19 | < 100 nM | < 100 nM | C[C@@H](C1CC1)N1Cc2cc(-c3ccn4nc(N)c(C(=O)NC5CC5)c4n3)cc(OC(F)(F)F)c2C1=O [Example 20, 2-Amino-N-cyclopropyl-5-{2-[(1S)-1-cyclopropylethyl]-1-oxo-7-(trifluoromethoxy)-2,3-dihydro-1H-isoindol-5-yl}pyrazolo[1,5-a]pyrimidine-3-carboxamide]
